Laboratory results as given in ChEMBL document CHEMBL4613209, “Quinolone hybrids and their anti-cancer activities: An overview” (Eur J Med Chem, 2019).

Key:
A549 = experiment: Antiproliferative activity against human A549 cells by CCK8 assay; format: functional, cell-based
HepG2 = experiment: Antiproliferative activity against human HepG2 cells by CCK8 assay; format: functional, cell-based
MCF7 = experiment: Antiproliferative activity against human MCF7 cells by CCK8 assay; format: functional, cell-based
PC-3 = experiment: Antiproliferative activity against human PC3 cells by CCK8 assay; format: functional, cell-based
HeLa = experiment: Antiproliferative activity against human HeLa cells by CCK8 assay; format: functional, cell-based
MCF-10A = experiment: Antiproliferative activity against human MCF10A cells by CCK8 assay; format: cell-based

SMILES	IC50 (A549) [µM]	IC50 (HepG2) [µM]	IC50 (MCF7) [µM]	IC50 (PC-3) [µM]	IC50 (HeLa) [µM]	IC50 (MCF-10A) [µM]
C[C@H]1COc2c(N3CCN(C)CC3)c(F)cc3c(=O)c(C(=O)NCc4cn(CCCCCCCC(=O)O)nn4)cn1c23	7.8 to 16.5	7.8 to 16.5	7.8 to 16.5	7.8 to 16.5	7.8 to 16.5	> 100
C[C@H]1COc2c(N3CCN(C)CC3)c(F)cc3c(=O)c(C(=O)OCc4cn(CCCCCC(=O)O)nn4)cn1c23	7.8 to 16.5	7.8 to 16.5	7.8 to 16.5	7.8 to 16.5	7.8 to 16.5	> 100
C[C@H]1COc2c(N3CCN(C)CC3)c(F)cc3c(=O)c(C(=O)NCc4cn(CCCCCC(=O)O)nn4)cn1c23	7.8 to 16.5	7.8 to 16.5	7.8 to 16.5	7.8 to 16.5	7.8 to 16.5	> 100
C[C@H]1COc2c(N3CCN(C)CC3)c(F)cc3c(=O)c(C(=O)OCc4cn(CCCCCCC(=O)O)nn4)cn1c23	7.8 to 16.5	7.8 to 16.5	7.8 to 16.5	7.8 to 16.5	7.8 to 16.5	> 100
C[C@H]1COc2c(N3CCN(C)CC3)c(F)cc3c(=O)c(C(=O)NCc4cn(CCCCCCC(=O)O)nn4)cn1c23	7.8 to 16.5	7.8 to 16.5	7.8 to 16.5	7.8 to 16.5	7.8 to 16.5	> 100
C[C@H]1COc2c(N3CCN(C)CC3)c(F)cc3c(=O)c(C(=O)O)cn1c23 [LEVOFLOXACIN]	64.2 to 100	64.2 to 100	64.2 to 100	64.2 to 100	64.2 to 100	25.2
C[C@H]1COc2c(N3CCN(C)CC3)c(F)cc3c(=O)c(C(=O)OCc4cn(CCCCCCCC(=O)O)nn4)cn1c23	7.8 to 16.5	7.8 to 16.5	7.8 to 16.5	7.8 to 16.5	7.8 to 16.5	> 100
